The NIST ThermoML archive (doi:10.1021/je700260f)
Numbers after ± are expanded uncertainties.

Settings: 323.14 K, Liquid, Vibrating tube method

FC(C(F)(F)F)C(F)(F)F [1,1,1,2,3,3,3-heptafluoropropane]
Settings | mass density [kg/m3]
10190 kPa | 1363.3 ± 1.5
10206 kPa | 1363.7 ± 1.5
10232 kPa | 1363.8 ± 1.5
10249 kPa | 1363.9 ± 1.5
10273 kPa | 1364 ± 1.5
10288 kPa | 1364 ± 1.5
10306 kPa | 1364.3 ± 1.5
10331 kPa | 1364.4 ± 1.5
10619 kPa | 1366.6 ± 1.5
10640 kPa | 1366.6 ± 1.5
10664 kPa | 1366.8 ± 1.5
10682 kPa | 1367 ± 1.5
10704 kPa | 1367.2 ± 1.5
10722 kPa | 1367.2 ± 1.5
10915 kPa | 1368.6 ± 1.5
10935 kPa | 1368.7 ± 1.5
10959 kPa | 1368.8 ± 1.5
10980 kPa | 1369 ± 1.5
10998 kPa | 1369.1 ± 1.5
11021 kPa | 1369.4 ± 1.5
11042 kPa | 1369.4 ± 1.5
11057 kPa | 1369.5 ± 1.5
11076 kPa | 1369.7 ± 1.5
11096 kPa | 1369.7 ± 1.5
11117 kPa | 1370 ± 1.5
11135 kPa | 1370.2 ± 1.5
11157 kPa | 1370.3 ± 1.5
11177 kPa | 1370.4 ± 1.5
11197 kPa | 1370.5 ± 1.5
11213 kPa | 1370.6 ± 1.5
11232 kPa | 1370.9 ± 1.5
11253 kPa | 1370.9 ± 1.5
11267 kPa | 1370.9 ± 1.5
11292 kPa | 1371.1 ± 1.5
11315 kPa | 1371.3 ± 1.5
11336 kPa | 1371.4 ± 1.5
11363 kPa | 1371.8 ± 1.5
11565 kPa | 1373.2 ± 1.5
11585 kPa | 1373.1 ± 1.5
11609 kPa | 1373.4 ± 1.5
11632 kPa | 1373.4 ± 1.5
11649 kPa | 1373.5 ± 1.5
11666 kPa | 1373.6 ± 1.5
11689 kPa | 1373.9 ± 1.5
11707 kPa | 1374 ± 1.5
11729 kPa | 1374.2 ± 1.5
11754 kPa | 1374.2 ± 1.5
11777 kPa | 1374.4 ± 1.5
11792 kPa | 1374.5 ± 1.5
11810 kPa | 1374.6 ± 1.5
11827 kPa | 1374.8 ± 1.5
11848 kPa | 1374.9 ± 1.5
11870 kPa | 1375 ± 1.5
11893 kPa | 1375.2 ± 1.5
11908 kPa | 1375.3 ± 1.5
11927 kPa | 1375.4 ± 1.5
11947 kPa | 1375.6 ± 1.5
11965 kPa | 1375.6 ± 1.5
11993 kPa | 1375.7 ± 1.5
12013 kPa | 1376 ± 1.5
12029 kPa | 1376.1 ± 1.5
12054 kPa | 1376.2 ± 1.5
12076 kPa | 1376.4 ± 1.5
12099 kPa | 1376.6 ± 1.5
12118 kPa | 1376.8 ± 1.5
12139 kPa | 1376.8 ± 1.5
12160 kPa | 1377 ± 1.5
12176 kPa | 1376.9 ± 1.5
12200 kPa | 1377.2 ± 1.5
12222 kPa | 1377.4 ± 1.5
12238 kPa | 1377.4 ± 1.5
12262 kPa | 1377.6 ± 1.5
12274 kPa | 1377.8 ± 1.5
12293 kPa | 1377.8 ± 1.5
12313 kPa | 1377.9 ± 1.5
12329 kPa | 1378.1 ± 1.5
12350 kPa | 1378.1 ± 1.5
12373 kPa | 1378.3 ± 1.5
12391 kPa | 1378.5 ± 1.5
12410 kPa | 1378.6 ± 1.5
12427 kPa | 1378.8 ± 1.5
12447 kPa | 1378.8 ± 1.5
12464 kPa | 1378.9 ± 1.5
12483 kPa | 1379.1 ± 1.5
12497 kPa | 1379.2 ± 1.5
12514 kPa | 1379.4 ± 1.5
12536 kPa | 1379.3 ± 1.5
12551 kPa | 1379.4 ± 1.5
12573 kPa | 1379.6 ± 1.5
12589 kPa | 1379.7 ± 1.5
12612 kPa | 1379.9 ± 1.5
12627 kPa | 1380 ± 1.5
12652 kPa | 1380.2 ± 1.5
12677 kPa | 1380.3 ± 1.5
12736 kPa | 1380.7 ± 1.5
12755 kPa | 1380.8 ± 1.5
13031 kPa | 1382.6 ± 1.5
13052 kPa | 1382.8 ± 1.5
13077 kPa | 1382.9 ± 1.5
13095 kPa | 1383 ± 1.5
13117 kPa | 1382.9 ± 1.5
13141 kPa | 1383.4 ± 1.5
13161 kPa | 1383.4 ± 1.5
13263 kPa | 1384.2 ± 1.5
13295 kPa | 1384.2 ± 1.5
13310 kPa | 1384.3 ± 1.5
13334 kPa | 1384.5 ± 1.5
13348 kPa | 1384.5 ± 1.5
13370 kPa | 1384.7 ± 1.5
13389 kPa | 1384.9 ± 1.5
13415 kPa | 1385 ± 1.5
13433 kPa | 1385 ± 1.5
13456 kPa | 1385.2 ± 1.5
13476 kPa | 1385.4 ± 1.5
13497 kPa | 1385.5 ± 1.5
13522 kPa | 1385.7 ± 1.5
13541 kPa | 1385.7 ± 1.5
13570 kPa | 1385.9 ± 1.5
13595 kPa | 1386 ± 1.5
13614 kPa | 1386.2 ± 1.5
13637 kPa | 1386.4 ± 1.5
13663 kPa | 1386.4 ± 1.5
13682 kPa | 1386.6 ± 1.5
13710 kPa | 1386.8 ± 1.5
13870 kPa | 1387.7 ± 1.5
14734 kPa | 1393 ± 1.6
14760 kPa | 1393 ± 1.6
14781 kPa | 1393.3 ± 1.6
14798 kPa | 1393.4 ± 1.6
14818 kPa | 1393.6 ± 1.6
14842 kPa | 1393.7 ± 1.6
14866 kPa | 1393.6 ± 1.6
14883 kPa | 1393.8 ± 1.6
14902 kPa | 1394 ± 1.6
14919 kPa | 1394.1 ± 1.6
14940 kPa | 1394.1 ± 1.6
14959 kPa | 1394.3 ± 1.6
14983 kPa | 1394.4 ± 1.6
15001 kPa | 1394.4 ± 1.6
15028 kPa | 1394.7 ± 1.6
15049 kPa | 1394.9 ± 1.6
15077 kPa | 1395 ± 1.6
15098 kPa | 1395 ± 1.6
15122 kPa | 1395.1 ± 1.6
15150 kPa | 1395.5 ± 1.6
15173 kPa | 1395.6 ± 1.6
15198 kPa | 1395.7 ± 1.6
15219 kPa | 1395.7 ± 1.6
15265 kPa | 1396.1 ± 1.6
15284 kPa | 1396.2 ± 1.6
15307 kPa | 1396.3 ± 1.6
15326 kPa | 1396.4 ± 1.6
15346 kPa | 1396.5 ± 1.6
15368 kPa | 1396.6 ± 1.6
15389 kPa | 1396.7 ± 1.6
15413 kPa | 1396.8 ± 1.6
15436 kPa | 1397 ± 1.6
15456 kPa | 1397.1 ± 1.6
15488 kPa | 1397.3 ± 1.6
15504 kPa | 1397.5 ± 1.6
15524 kPa | 1397.5 ± 1.6
15550 kPa | 1397.7 ± 1.6
15575 kPa | 1397.8 ± 1.6
15602 kPa | 1398 ± 1.6
15630 kPa | 1398.1 ± 1.6
15655 kPa | 1398.2 ± 1.6
15678 kPa | 1398.5 ± 1.6
16094 kPa | 1400.8 ± 1.6
16115 kPa | 1400.9 ± 1.6
16141 kPa | 1401 ± 1.6
16161 kPa | 1401.1 ± 1.6
16188 kPa | 1401.4 ± 1.6
17246 kPa | 1407 ± 1.6
17274 kPa | 1407.3 ± 1.6
17301 kPa | 1407.6 ± 1.6
17357 kPa | 1407.6 ± 1.6
17403 kPa | 1407.9 ± 1.6
17424 kPa | 1408 ± 1.6
17446 kPa | 1408.2 ± 1.6
17472 kPa | 1408.3 ± 1.6
17493 kPa | 1408.4 ± 1.6
17519 kPa | 1408.6 ± 1.6
17539 kPa | 1408.5 ± 1.6
17574 kPa | 1408.8 ± 1.6
17597 kPa | 1408.9 ± 1.6
17623 kPa | 1409 ± 1.6
17646 kPa | 1409.2 ± 1.6
17666 kPa | 1409.3 ± 1.6
17693 kPa | 1409.4 ± 1.6
17717 kPa | 1409.6 ± 1.6
17741 kPa | 1409.7 ± 1.6
17761 kPa | 1409.8 ± 1.6
17791 kPa | 1410 ± 1.6
17819 kPa | 1410.1 ± 1.6
17843 kPa | 1410.3 ± 1.6
17864 kPa | 1410.4 ± 1.6
17920 kPa | 1410.7 ± 1.6
18206 kPa | 1412.2 ± 1.6
18259 kPa | 1412.5 ± 1.6
18289 kPa | 1412.6 ± 1.6
18339 kPa | 1412.9 ± 1.6
18360 kPa | 1412.9 ± 1.6
18390 kPa | 1413.2 ± 1.6
18414 kPa | 1413.2 ± 1.6
18445 kPa | 1413.4 ± 1.6
